From patent publication US6548041B1, “Dopamine transporter imaging agents” (Organix, Inc., priority 1999, dated 2003)

Key:
SERT = SERT (Homo sapiens, UniProt P31645); test: Binding affinity for SERT (selectivity test)
[1] = target: dopamine transporter (DAT); test: Binding affinity for the dopamine transporter; details: for DAT/SERT: selectivity ratio from the IC50 values for DAT and SERT
[2] = Biodistribution and radiation dosimetry (MIRdose); format: in vivo, Sprague-Dawley rats; details: rat, 5 min to 24 hrs after injection
Description: Groups of male Sprague-Dawley rats were in injected with ˜10 mCi of ^99mTc labeled O-1505T and O-1561T. At time intervals between 5 min. and 24 hrs after injection, groups of 6 animals injected with each radiopharmaceutical were sacrificed and biodistribution was measured. Samples of blood, heart, lung, liver, spleen, kidney, adrenal, stomach, GI tract, testes, bone, bone marrow and skeletal muscle were weighed and radioactivity was measured with a well type gamma counter (LKB model #1282, Wallac Oy, Finland). To correct for radioactive decay and permit calculation of the concentration of radioactivity in each organ as a fraction of the administered dose, aliquots of the injected doses were counted simultaneously. The results were expressed as percent injected dose per gram (%I.D./g) and radiation dosimetry was estimated by the MIRdose method.

DAT sites in striatum [3] = target: T1, DAT sites in striatum (Macaca mulatta, UniProt Q7JHP9); test: SPECT imaging of monkey brain with 99mTc labeled tracers; format: in vivo, Rhesus monkeys; details: for accumulation of radioactivity in striatum vs other areas of the brain (SPECT images): images acquired between 30 and 50 minutes after injection
T1 construct: from tissue; host or cells: brain (striatum) of living rhesus monkeys, imaged in vivo
Description: (§1) All SPECT images were acquired with a MultiSPECT 2 gamma camera (Siemens, Hoffman Estates, Ill.) equipped with fan-beam collimators and peaked to the 140 KeV photopeak of ^99mTc (15% window). This camera has intrinsic resolution of 4.6 mm (FWHM), and a sensitivity of ˜240 cps/mCi. Images were acquired over 360° (60 projections/head, 128×128 matrix) in the continuous mode. Image reconstruction was performed using a conventional filtered back-projection algorithm to an in-plane resolution of 10 mm FWHM and attenuation correction via the Chang method.
(§2) Rhesus monkeys weighing approximately 7 kg were anesthetized with ketamine/xylazine (15.0 and 1.5 mg/kg) and positioned prone on the imaging bed of the SPECT camera. Before the start of imaging, a venous catheter was inserted in a peripheral vein for radiopharmaceutical administration. The heads of the animals were immobilized with a custom fabricated head holder. Approximately 20-25 mCi of ^99mTc labeled O-1505T, O-1508T, O-1561T or O-1560T was injected intravenously over 60 seconds. Dynamic SPECT imaging was initiated at the end of the infusion and consisted of 2 min. acquisitions during the first hour and 5 min. acquisitions thereafter.
(§3) SPECT slices with greatest striatal activity or in which the occipital cortex was well visualized were summed and regions of interest (ROI's) were constructed. In the striatal planes, ROI's were placed on the right and left striatum (caudate+putamen). Radioactivity in the right and left striatum were averaged. ROI radioactivities (cpm/cc) were decay corrected to the time of injection. The difference between striatal and occipital cortex activity (specific binding) was calculated for each image and was plotted as a function of time. Corrections for scattered fraction and partial volume effects were not performed.

DAT sites in striatum [4] = test: as above; format: in vivo, Rhesus monkeys; details: SPECT images
Description: as §1, §2, §3

SERT, sequence (P31645 whole entry, species assumed): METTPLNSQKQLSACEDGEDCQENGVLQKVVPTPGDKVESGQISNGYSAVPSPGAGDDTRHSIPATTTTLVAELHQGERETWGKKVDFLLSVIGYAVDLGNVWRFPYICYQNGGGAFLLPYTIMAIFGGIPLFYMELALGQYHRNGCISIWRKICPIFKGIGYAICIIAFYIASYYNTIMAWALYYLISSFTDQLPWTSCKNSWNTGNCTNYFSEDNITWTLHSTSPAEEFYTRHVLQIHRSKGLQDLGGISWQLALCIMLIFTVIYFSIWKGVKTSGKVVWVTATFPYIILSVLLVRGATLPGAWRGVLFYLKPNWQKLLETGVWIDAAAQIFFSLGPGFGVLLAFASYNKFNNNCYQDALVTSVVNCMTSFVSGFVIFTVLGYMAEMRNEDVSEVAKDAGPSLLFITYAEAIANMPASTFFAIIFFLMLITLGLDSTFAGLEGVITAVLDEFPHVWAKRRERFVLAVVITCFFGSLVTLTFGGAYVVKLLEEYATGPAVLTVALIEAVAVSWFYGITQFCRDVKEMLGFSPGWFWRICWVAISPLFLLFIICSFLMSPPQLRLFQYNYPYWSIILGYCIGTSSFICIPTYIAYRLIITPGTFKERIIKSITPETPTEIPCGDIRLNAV
T1 sequence (Q7JHP9 1-620): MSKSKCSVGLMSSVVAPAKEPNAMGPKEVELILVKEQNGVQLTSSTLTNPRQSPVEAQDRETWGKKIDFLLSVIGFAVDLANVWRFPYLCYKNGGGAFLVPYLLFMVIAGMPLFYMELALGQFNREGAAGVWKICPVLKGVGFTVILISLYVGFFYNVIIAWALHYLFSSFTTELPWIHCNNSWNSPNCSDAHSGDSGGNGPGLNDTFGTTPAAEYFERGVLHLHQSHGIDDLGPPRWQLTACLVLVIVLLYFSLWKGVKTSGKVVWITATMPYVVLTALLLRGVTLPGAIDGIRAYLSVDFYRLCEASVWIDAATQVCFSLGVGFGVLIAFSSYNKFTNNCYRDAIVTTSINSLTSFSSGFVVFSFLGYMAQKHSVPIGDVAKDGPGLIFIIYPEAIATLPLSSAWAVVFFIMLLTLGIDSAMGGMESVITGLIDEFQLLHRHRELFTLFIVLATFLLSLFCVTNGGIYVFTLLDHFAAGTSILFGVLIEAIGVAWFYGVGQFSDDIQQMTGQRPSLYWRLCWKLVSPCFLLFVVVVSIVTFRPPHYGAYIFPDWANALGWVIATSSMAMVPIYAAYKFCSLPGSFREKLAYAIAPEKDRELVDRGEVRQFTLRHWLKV

SMILES | IC50 (SERT) | IC50 [1] | DAT/SERT [1] | also measured
COC(=O)C1=C(c2ccc3ccccc3c2)CC2CCC1N2CCC[N+]12CC[S][Re-]13(=[O])[S]CC[N]3C(=O)C2 (mixture of isomers) [Compound O-1185, N-[(2-((3′-N′-Propyl-(1″R)-2″-methoxycarbonyl-3″-(2-naphthyl)-trop-2-ene)(2-mercaptoethyl)amino)acetyl)-2-aminoethane-thiolato]-rhenium (V) Oxide] | 960 nM | 63 nM | 15 | 
CCC(=O)C1C(c2ccc(Cl)c(Cl)c2)CC2CCC1N2CCCN1CC[S][Re]2(=[O])[S]CC[N]2C(=O)C1 (mixture of isomers) [Compound O-1561, N-[(2-((3′-N′-Propyl-(1″R)-3″α-(3,4-dichlorophenyl)tropane-2″β-1′″-propanoyl)(2-mercaptoethyl)amino)acetyl)-2-aminoethane-thiolato]rhenium (V) Oxide] | 337 nM | 5.3 nM | 63 | 
CCC(=O)C1C(c2ccc(Cl)c(Cl)c2)CC2CCC1N2CCCN1CC[S][99Tc]2(=[O])[S]CC[N]2C(=O)C1 (stereo not drawn) [Compound O-1561T, N-[(2-((3′-N′-Propyl-(1″R)-2″β-1-propanoyl-3″α-(3,4-dichlorophenyl)-tropane)(2-mercaptoethyl)amino)acetyl)-2-aminoethanethiolato]-technetium (V) Oxide] |  |  |  | clearance from tissues (biodistribution) [2]: cleared rapidly from all tissues of the rat; time after injection to excellent contrast between striatum and the rest of the brain (DAT sites in striatum [3]; i.v., normal monkeys): ≤ 30 min; accumulation of radioactivity in striatum vs other areas of the brain (SPECT images) (DAT sites in striatum [3]): high concentrations of radiopharmaceutical in the striatum with minimal accumulation in other areas of the brain; striatal to occipital cortex ratio (DAT sites in striatum [3]; region of interest analysis, SPECT images 30-50 minutes after i.v. injection of 20-25 mCi): ~2.5; accumulation in thalamus, hypothalamus or midbrain (regions rich in 5-HT transporters) (DAT sites in striatum [4]): lack of accumulation
COC(=O)C1C(c2ccc(Cl)c(Cl)c2)CC2CCC1N2CCC[N+]12CC[S][Re-]13(=[O])[S]CC[N]3C(=O)C2 (stereo not drawn) [Compound O-1196, N-[(2-((3′-N′-Propyl-(1″R)-3″α-(3,4-dichlorophenyl)-2″β-methoxy-carbonyltropane)(2-mercaptoethyl)amino)acetyl)-2-aminoethanethiolato]rhenium (V) Oxide] | 640 nM | 10 nM | 64 | 
COC(=O)C1C(c2ccc(Cl)c(Cl)c2)CC2CCC1N2CCC[N+]12CC[S][Re-]13(=[O])[S]CC[N]3C(=O)C2 (mixture of isomers) [Compound O-863] |  | 40 nM |  | 
COC(=O)C1C(c2ccc3ccccc3c2)CC2CCC1N2CCC[N+]12CC[S][Re-]13(=[O])[S]CC[N]3C(=O)C2 (mixture of isomers) [Compound O-1339, N-[(2-((3′-N′-Propyl-(1″R)-2″β-methoxycarbonyl-3″β-(2-naphthyl)-tropane)(2-mercaptoethyl)amino)acetyl)-2-aminoethanethiolato]-rhenium (V) Oxide] | 59 nM | 3.6 nM | 16 | 
COC(=O)C1C(c2ccc(F)cc2)CC2CCC1N2CCCN1CC[S][Re]2(=[O])[S]CC[N]2C(=O)C1 (single isomer, unassigned) [Compound O-927] | 200 nM | 5 nM | 40 | 
CCC(=O)C1C(c2ccc(F)cc2)CC2CCC1N2CCCN1CC[S][Re]2(=[O])[S]CC[N]2C(=O)C1 (mixture of isomers) [Compound O-1508, N-[(2-((3′-N′-Propyl-(1″R)-3″β-(4-fluorophenyl)tropane-2″β-1-propanoyl)(2-mercaptoethyl)amino)acetyl)-2-aminoethane-thiolato]rhenium (V) oxide] | 200 nM | 5.9 nM | 34 | 
COC(=O)C1C(c2ccc(F)cc2)CC2CCC1N2CCC[N+]12CC[S][Re-]13(=[O])[S]CC[N]3C(=O)C2 (mixture of isomers) [Compound O-861] | 80 nM | 2.9 nM | 28 | 
COC(=O)C1=C(c2ccc(Cl)c(Cl)c2)CC2CCC1N2CCC[N+]12CC[S][Re-]13(=[O])[S]CC[N]3C(=O)C2 (centres unmarked) [Compound O-1136, N-[(2-((3′-N′-Propyl-(1″R)-3″-(3,4-dichlorophenyl)trop-2-ene-2″-methoxycarbonyl)(2-mercaptoethyl)amino)acetyl)-2-aminoethane-thiolato]rhenium (V) Oxide] | 1690 nM | 60 nM | 28 | 
CCC(=O)C1C(c2ccc(F)cc2)CC2CCC1N2CCC[N+]12CC[S][Re-]13(=[O])[S]CC[N]3C(=O)C2 (stereo not drawn) [Compound O-1505, N-[(2-((3′-N′-Propyl-(1″R)-3″α-(4-fluorophenyl)tropane-2″β-1′″-propanoyl)(2-mercaptoethyl)amino)acetyl)-2-aminoethane-thiolato]rhenium (V) Oxide] | 497 nM | 2 nM | 249 | 
COC(=O)C1C(c2ccc(F)cc2)CC2CCC1N2CCCN1CC[S][Re]2(=[O])[S]CC[N]2C(=O)C1 (single isomer, unassigned) [Compound O-928] | 30 nM | 3 nM | 10 | 
CCC(=O)C1C(c2ccc(Cl)c(Cl)c2)CC2CCC1N2CCCN1CC[S][99Tc]2(=[O])[S]CC[N]2C(=O)C1 (stereo not drawn) [Compound O-1560T, N-[(2-((3′-N′-Propyl-(1″R)-2″β-1-propanoyl-3″β-(3,4-dichlorophenyl)-tropane)(2-mercaptoethyl)amino)acetyl)-2-aminoethanethiolato]-technetium (V) Oxide] |  |  |  | accumulation of radioactivity in striatum vs other areas of the brain (SPECT images) (DAT sites in striatum [3]): results more like O-1505T and O-1561T
COC(=O)C1C(c2ccc(F)cc2)CC2CCC1N2CCC[N+]12CC[S][Re-]13(=[O])[S]CC[N]3C(=O)C2 (centres unmarked) [Compound O-1186] | 1300 nM | 3.8 nM | 340 | 
CON(C)C(=O)C1C(c2ccc(F)cc2)CC2CCC1N2CCC[N+]12CC[S][Re-]13(=[O])[S]CC[N]3C(=O)C2 (stereo not drawn) [Compound O-1451, N-[(2-((3′-N′-Propyl-(1″R)-3″α-(4-fluorophenyl)tropane-2″β-methoxymethylcarbamoyl)(2-mercaptoethyl)amino)acetyl)-2-aminoethanethiolato]rhenium (V) Oxide] | 3260 nM | 40 nM | 80 | 
CCC(=O)C1C(c2ccc(F)cc2)CC2CCC1N2CCCN1CC[S][99Tc]2(=[O])[S]CC[N]2C(=O)C1 (stereo not drawn) [Compound O-1508T, N-[(2-((3′-N′-Propyl-(1″R)-3″β-(4-fluorophenyl)tropane-2″β-1-propanoyl)-(2-mercaptoethyl)amino)acetyl)-2-aminoethanethiolato]technetium (V) Oxide] |  |  |  | accumulation of radioactivity in striatum vs other areas of the brain (SPECT images) (DAT sites in striatum [3]): failing to demonstrate significant accumulation of radioactivity in striatum or elsewhere in the brain
